Data published in paper PMC5841658, “Anti-cancer characteristics and ototoxicity of platinum(II) amine complexes with only one leaving ligand” (PLoS ONE, 2018).
Several values for one entry are separate records, joined by “and”; a condition that tells them apart may be missing. Equal entries are not always repeated.

How the values were obtained:
[1] = system: IMR-90 lung fibroblast control cell line; experiment: MTT cellular viability assay, IMR90; type: cell-based; details: IMR90 (fibroblast, non-cancer), 72 hours, ± standard deviation
Description: (§1) Cell lines were obtained from American Type Culture Collection (ATCC, Manassas, VA). […] Caco-2 (ATCC: HTB-37) colorectal cancer was grown in EMEM with 20% FBS and 1% penicillin/streptomycin. All cell lines were incubated at 37°C in 5% CO2 with passaging every 4–7 days. Cell culture media and supplements were obtained from ATCC, Atlanta Biologicals (Flowery Branch, GA), Mediatech (Tewksbury, MA), Fisher Scientific (Waltham, MA), Gibco (Gaithersburg, MD) and Sigma-Aldrich.
(§2) The MTT (3-(4,5-dimethylthiazol-2-yl)-2,5-diphenyltetrazolium bromide) cellular viability assay was performed in all three cancer cell lines and the non-cancer cell line. Following a protocol adapted from, cells were seeded at 5,000 cells per well in 96-well plates and incubated at 37°C in 5% CO2 in F-12K Medium or EMEM with FBS supplementation and 1% penicillin/streptomycin for 24 hours. Then, wells were treated in replicates of six according to a concentration series (500, 50, 5, 0.5, 0.05 μM) of specific platinum complexes for 72 hours. A negative control (media only), positive control (Triton X-100) and series of blanks were simultaneously performed. The MTT assay was run for 2 hours, then well contents were rapidly evacuated out and all wells were treated with MTT solubilization solution [10% Triton X-100 in acidic (0.1N HCl) isopropanol] for 15 minutes before the plates were read using a BioTek Synergy HT microplate plate reader (570 nm and 690 nm absorbance wavelengths). Reagents, cell culture media and supplements were obtained from ATCC, Atlanta Biologicals, Mediatech, Fisher Scientific, Gibco and Sigma-Aldrich.
(§3) GraphPad Prism v6 (La Jolla, CA) was used for all statistical analysis. Nuclear fraction platinum uptake as a total percent of combined nuclear and cytosolic uptake was analyzed using a one-way ANOVA (Brown-Forsyth test; p ≤ 0.05). IC50 values were calculated in Prism using the sigmoidal, 4PL, x is log(concentration) analysis feature or were calculated from Prism derived values using the equation y = mx + b. MTT assay standard deviation values were calculated using ED50plus v1.0 online software. AEP threshold data were analyzed by two-way ANOVA (Dunnett’s multiple comparisons test; p ≤ 0.05) and hair cell quantification data by two-way ANOVA (Tukey’s multiple comparisons test; p ≤ 0.05). AEP temporary threshold shifts (TTS) were calculated by subtracting the mean vehicle threshold for each frequency from each treatment threshold. TTS data were averaged across frequencies for each treatment and were analyzed by one-way ANOVA (Tukey’s multiple comparisons test; p ≤ 0.05).

[2] = system: zebrafish hearing thresholds; experiment: Auditory evoked potential (AEP) testing in zebrafish inner ear model; type: in vivo, Danio rerio; details: 25 mg/kg i.p.; for mean (± S.E.) temporary threshold shift (TTS), averaged across frequencies: 48 hours, vehicle threshold subtracted; for AEP hearing threshold, significance of pairwise comparison against cisplatin / AEP hearing threshold, significance of pairwise comparison against vehicle: 48 h
Description: Zebrafish (Danio rerio) were purchased from a commercial supplier (Segrest Farms, Gibsonton, FL) and maintained in the animal facility of Western Kentucky University according to a protocol approved by the Institutional Animal Care and Use Committee. All zebrafish used in this study were a mix of male and female adult animals at least 6 months of age and were maintained according to standard methods.
After injection, fish were returned to holding tanks for either 24 or 48 hours and then subjected to hearing tests followed by hair cell quantification analysis.
Auditory evoked potential (AEP) testing was performed on individual fish according to standard protocols. […] After harness placement was complete, three 27 gauge stainless steel electrodes (Rochester Electro-Medical, Inc., Lutz, FL) were inserted approximately 2 mm subdermally to record AEPs. A reference electrode was inserted into the medial dorsal surface of the head, a recording electrode directly over the brainstem and a ground electrode in the tail musculature. Sound stimuli (tone pips) were presented to each fish at 8 frequencies (100, 250, 400, 600, 800, 1000, 1500 and 3000 Hz) and AEP waveforms were collected using a TDT System III physiology apparatus (Tucker-Davis Technologies Inc., Alachua, FL) running SigGen and BioSig software. Auditory stimuli were passed through a P1000 power amplifier (Hafler, Port Coquitlam, BC) and presented with a University Sound UW-30 underwater speaker (Electro-Voice, Fairport, NY). Sound pressure levels were confirmed using a Type 10CT hydrophone (G.R.A.S., Holte, Denmark) placed adjacent to the mesh harness. Auditory thresholds were determined in 5 dB increments by visual inspection of AEP waveforms.
as §3

5'-GMP = experiment: Kinetic 5'-GMP assay (1H NMR, rate of reaction of platinum complex with 5'-GMP); type: biochemical; details: D2O, pH 7, 25°C; for Rate constant for the reaction of 5'-GMP with the platinum(II) complex: excess platinum, fitted first order in each reactant
Description: The reaction of each platinum compound with 5'-GMP (Acros) was monitored using ^1H NMR spectroscopy to observe the disappearance of the H8 signal of the unreacted 5'-GMP at ≈8 ppm and the appearance of a product signal ≈0.5–1.0 ppm downfield of the unreacted 5'-GMP. The reaction was conducted with excess platinum compound present in each case. A 10 mM solution of 5'-GMP and a 10–20 mM solution of the platinum(II) compound were prepared separately in D2O. The pH (uncorrected for the effects of deuterium) of each solution was adjusted to 7, and the samples were equilibrated to 25°C in a water bath. Aliquots of the two solutions were combined and placed in an NMR tube; typically, the final concentrations of platinum was 5–18 mM and the concentration of 5'-GMP was 1 mM (except for the [Pt(dien)Cl]^+ reaction, where it was 0.5 mM). Samples were maintained at 25°C throughout the NMR experiment. The H8 resonances were integrated and the data was fitted to an equation that was first order in each reactant using DynaFit to determine rate constants. At least two runs were conducted for each platinum compound using fresh samples.

[3] = system: U-138 MG (HTB-16) glioblastoma cancer cell line; experiment: MTT cellular viability assay, HTB16; type: cell-based; details: HTB16 (glioma), 72 hours, ± standard deviation
Description: as §1, §2, §3

Row | Compound | IC50 [1] [µM] | mean (± S.E.) temporary threshold shift (TTS), averaged across frequencies [2] [dB] | AEP hearing threshold, significance of pairwise comparison against cisplatin ([2]; 100 Hz) | AEP hearing threshold, significance of pairwise comparison against vehicle ([2]; 100 Hz) | AEP hearing threshold, significance of pairwise comparison against cisplatin ([2]; 250 Hz) | AEP hearing threshold, significance of pairwise comparison against vehicle ([2]; 250 Hz) | AEP hearing threshold, significance of pairwise comparison against cisplatin ([2]; 400 Hz) | AEP hearing threshold, significance of pairwise comparison against vehicle ([2]; 400 Hz) | AEP hearing threshold, significance of pairwise comparison against cisplatin ([2]; 600 Hz) | AEP hearing threshold, significance of pairwise comparison against vehicle ([2]; 600 Hz) | AEP hearing threshold, significance of pairwise comparison against cisplatin ([2]; 800 Hz) | AEP hearing threshold, significance of pairwise comparison against vehicle ([2]; 800 Hz) | AEP hearing threshold, significance of pairwise comparison against cisplatin ([2]; 1000 Hz) | AEP hearing threshold, significance of pairwise comparison against vehicle ([2]; 1000 Hz) | AEP hearing threshold, significance of pairwise comparison against cisplatin ([2]; 1500 Hz) | AEP hearing threshold, significance of pairwise comparison against vehicle ([2]; 1500 Hz) | AEP hearing threshold, significance of pairwise comparison against cisplatin ([2]; 3000 Hz) | AEP hearing threshold, significance of pairwise comparison against vehicle ([2]; 3000 Hz) | Relative rate (rate constant divided by the rate constant for [Pt(dien)Cl]^+) (5'-GMP) | Rate constant for the reaction of 5'-GMP with the platinum(II) complex (5'-GMP) | other results
1 | [Cl][Pt-2]12[NH2+]CC[NH+]1CC[NH2+]2 (stereo not drawn) [[Pt(dien)Cl]^+, Pt(diethylenetriamine)Cl] | 56 ± 6.1 | 12.0 ± 3.0 | ns (ns, p > 0.05) | * (* p ≤ 0.05) | ns (ns, p > 0.05) | ns (ns, p > 0.05) | ns (ns, p > 0.05) | **** (**** p ≤ 0.0001) | ns (ns, p > 0.05) | **** (**** p ≤ 0.0001) | ns (ns, p > 0.05) | **** (**** p ≤ 0.0001) | ns (ns, p > 0.05) | **** (**** p ≤ 0.0001) | ns (ns, p > 0.05) | ns (ns, p > 0.05) | ns (ns, p > 0.05) | * (* p ≤ 0.05) | 1 | 3.9 ± 0.1 x 10^−1 M^-1s^-1 and 3.9 (+/- 0.1) x 10^−1 M^-1s^-1 | IC50 [3]: 209 ± 42.3 µM
2 | phenanthriplatin | 1.24 ± 0.48 | 13.3 ± 2.9 | * (* p ≤ 0.05) | *** (*** p ≤ 0.001) | ns (ns, p > 0.05) | ns (ns, p > 0.05) | ns (ns, p > 0.05) | *** (*** p ≤ 0.001) | ns (ns, p > 0.05) | ** (** p ≤ 0.01) | * (* p ≤ 0.05) | **** (**** p ≤ 0.0001) | * (* p ≤ 0.05) | **** (**** p ≤ 0.0001) | ns (ns, p > 0.05) | ns (ns, p > 0.05) | ** (** p ≤ 0.01) | **** (**** p ≤ 0.0001) | 0.041 | 1.63 (+/- .02) x 10^−2 M^-1s^-1 | mean (± S.E.) temporary threshold shift (TTS), averaged across frequencies ([2]; listed as phenanthriplatin): 13 dB; fold reduction in the rate relative to [Pt(dien)Cl]^+ (5'-GMP): ~ 25 fold; Rate constant for the reaction of 5'-GMP with the platinum(II) complex (5'-GMP; listed as phenanthriplatin): 1.63 ± 0.02 x 10^-2 M^-1s^-1; IC50 [3]: 2.41 ± 0.11 µM
